Laboratory results published in PubChem BioAssay AID256 (DTP/NCI, 2004).
Inconclusive results and toxic doses are left out.

Test system: CD2F1 mice, L1210 leukemia ip, survival T/C
Experiment: NCI In Vivo Anticancer Drug Screen. Data for tumor model L1210 Leukemia (intraperitoneal) in CD2F1 (CDF1) mice
Conditions: higher = longer survival
Method in brief: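 Compound-dosed mice with transplantable tumor versus matched vehicle controls; endpoint ratio T/C reported.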

O=c1[nH]c(=O)n(C2CC(O)C(CO)O2)cc1F (configuration not stated)
T/C (endpoint: mean survival time, dose: 5.0 mg/kg/injection, schedule: Q#A X018 (ip), vehicle: saline): 115 % of control | T/C (endpoint: mean survival time, dose: 9.0 mg/kg/injection, schedule: Q#A X018 (ip), vehicle: saline): 121 % of control | T/C (endpoint: mean survival time, dose: 12.5 mg/kg/injection, schedule: Q03HX024 (oral), vehicle: saline): 101 % of control | T/C (endpoint: mean survival time, dose: 16.0 mg/kg/injection, schedule: Q#A X018 (ip), vehicle: saline): 121 % of control | T/C (endpoint: mean survival time, dose: 25.0 mg/kg/injection, schedule: Q01DX005 (ip), vehicle: water): 108 % of control | T/C (endpoint: mean survival time, dose: 25.0 mg/kg/injection, schedule: Q03HX008 (oral), vehicle: saline): 107 % of control | T/C (endpoint: mean survival time, dose: 25.0 mg/kg/injection, schedule: Q03HX016 (ip), vehicle: saline): 96 % of control | T/C (endpoint: mean survival time, dose: 26.0 mg/kg/injection, schedule: Q#A X018 (ip), vehicle: saline): 123 % of control | T/C (endpoint: mean survival time, dose: 31.3 mg/kg/injection, schedule: Q01DX005 (ip), vehicle: saline): 121 % of control | T/C (endpoint: mean survival time, dose: 37.5 mg/kg/injection, schedule: Q03DX003 (ip), vehicle: water): 121 % of control | T/C (endpoint: mean survival time, dose: 37.5 mg/kg/injection, schedule: Q04DX003 (ip), vehicle: water): 100 % of control | T/C (endpoint: mean survival time, dose: 43.0 mg/kg/injection, schedule: Q#A X018 (ip), vehicle: saline): 108 % of control | T/C (endpoint: mean survival time, dose: 50.0 mg/kg/injection, schedule: Q01DX005 (ip), vehicle: water): 110 % of control | T/C (endpoint: mean survival time, dose: 50.0 mg/kg/injection, schedule: Q01DX009 (oral), vehicle: saline): 119 % of control | T/C (endpoint: mean survival time, dose: 50.0 mg/kg/injection, schedule: Q03HX008 (oral), vehicle: saline): 111 % of control | T/C (endpoint: mean survival time, dose: 50.0 mg/kg/injection, schedule: Q03HX016 (ip), vehicle: saline): 111 % of control | T/C (endpoint: mean survival time, dose: 50.0 mg/kg/injection, schedule: Q03HX024 (oral), vehicle: saline): 107 % of control | T/C (endpoint: mean survival time, dose: 72.0 mg/kg/injection, schedule: Q#A X018 (ip), vehicle: saline): 106 % of control | T/C (endpoint: mean survival time, dose: 75.0 mg/kg/injection, schedule: Q01DX007 (ip), vehicle: water): 100 % of control | T/C (endpoint: mean survival time, dose: 75.0 mg/kg/injection, schedule: Q01DX009 (ip), vehicle: water): 110 % of control | T/C (endpoint: mean survival time, dose: 75.0 mg/kg/injection, schedule: Q03DX003 (ip), vehicle: water): 122 % of control | T/C (endpoint: mean survival time, dose: 75.0 mg/kg/injection, schedule: Q04DX003 (ip), vehicle: water): 111 % of control | T/C (endpoint: mean survival time, dose: 80.0 mg/kg/injection, schedule: Q01DX009 (ip), vehicle: saline): 167 % of control | T/C (endpoint: mean survival time, dose: 100.0 mg/kg/injection, schedule: Q01DX005 (ip), vehicle: water): 110 % of control | T/C (endpoint: mean survival time, dose: 100.0 mg/kg/injection, schedule: Q03HX024 (oral), vehicle: saline): 92 % of control | T/C (endpoint: mean survival time, dose: 100.0 mg/kg/injection, schedule: Q04DX003 (oral), vehicle: saline): 114 % of control | T/C (endpoint: mean survival time, dose: 120.0 mg/kg/injection, schedule: Q#A X018 (ip), vehicle: saline): 94 % of control | T/C (endpoint: mean survival time, dose: 125.0 mg/kg/injection, schedule: Q01DX001 (ip), vehicle: saline): 101 % of control | T/C (endpoint: mean survival time, dose: 125.0 mg/kg/injection, schedule: Q01DX001 (oral), vehicle: saline): 101 % of control | T/C (endpoint: mean survival time, dose: 125.0 mg/kg/injection, schedule: Q01DX001 (sc), vehicle: saline): 109 % of control | T/C (endpoint: mean survival time, dose: 125.0 mg/kg/injection, schedule: Q01DX009 (oral), vehicle: saline): 121 % of control | T/C (endpoint: mean survival time, dose: 125.0 mg/kg/injection, schedule: Q03HX008 (ip), vehicle: saline): 120 % of control | T/C (endpoint: mean survival time, dose: 125.0 mg/kg/injection, schedule: Q03HX016 (ip), vehicle: saline): 110 % of control | T/C (endpoint: mean survival time, dose: 125.0 mg/kg/injection, schedule: Q03HX024 (ip), vehicle: saline): 163 % of control | T/C (endpoint: mean survival time, dose: 125.0 mg/kg/injection, schedule: Q04DX003 (ip), vehicle: saline): 119 % of control | T/C (endpoint: mean survival time, dose: 125.0 mg/kg/injection, schedule: Q08DX002 (ip), vehicle: saline): 100 % of control | T/C (endpoint: mean survival time, dose: 150.0 mg/kg/injection, schedule: Q01DX007 (ip), vehicle: water): 100 % of control | T/C (endpoint: mean survival time, dose: 150.0 mg/kg/injection, schedule: Q01DX009 (ip), vehicle: water): 100 % of control | T/C (endpoint: mean survival time, dose: 160.0 mg/kg/injection, schedule: Q01DX009 (ip), vehicle: saline): 151 % of control | T/C (endpoint: mean survival time, dose: 200.0 mg/kg/injection, schedule: Q01DX001 (oral), vehicle: saline): 113 % of control | T/C (endpoint: mean survival time, dose: 200.0 mg/kg/injection, schedule: Q01DX005 (ip), vehicle: water): 87 % of control | T/C (endpoint: mean survival time, dose: 200.0 mg/kg/injection, schedule: Q01DX009 (oral), vehicle: saline): 114 % of control | T/C (endpoint: mean survival time, dose: 200.0 mg/kg/injection, schedule: Q03HX008 (oral), vehicle: saline): 94 % of control | T/C (endpoint: mean survival time, dose: 200.0 mg/kg/injection, schedule: Q03HX016 (ip), vehicle: saline): 118 % of control | T/C (endpoint: mean survival time, dose: 200.0 mg/kg/injection, schedule: Q08DX002 (oral), vehicle: saline): 103 % of control | T/C (endpoint: mean survival time, dose: 200.0 mg/kg/injection, schedule: Q#A X018 (ip), vehicle: saline): 88 % of control | T/C (endpoint: mean survival time, dose: 250.0 mg/kg/injection, schedule: Q01DX001 (ip), vehicle: saline): 111 % of control | T/C (endpoint: mean survival time, dose: 250.0 mg/kg/injection, schedule: Q01DX001 (oral), vehicle: saline): 108 % of control | T/C (endpoint: mean survival time, dose: 250.0 mg/kg/injection, schedule: Q01DX001 (sc), vehicle: saline): 123 % of control | T/C (endpoint: mean survival time, dose: 250.0 mg/kg/injection, schedule: Q01DX009 (ip), vehicle: saline): 108 % of control | T/C (endpoint: mean survival time, dose: 250.0 mg/kg/injection, schedule: Q01DX009 (oral), vehicle: saline): 121 % of control | T/C (endpoint: mean survival time, dose: 250.0 mg/kg/injection, schedule: Q01DX009 (sc), vehicle: saline): 122 % of control | T/C (endpoint: mean survival time, dose: 250.0 mg/kg/injection, schedule: Q03HX024 (ip), vehicle: saline): 155 % of control | T/C (endpoint: mean survival time, dose: 250.0 mg/kg/injection, schedule: Q04DX003 (ip), vehicle: saline): 162 % of control | T/C (endpoint: mean survival time, dose: 250.0 mg/kg/injection, schedule: Q08DX002 (ip), vehicle: saline): 115 % of control | T/C (endpoint: mean survival time, dose: 320.0 mg/kg/injection, schedule: Q01DX009 (ip), vehicle: saline): 102 % of control | T/C (endpoint: mean survival time, dose: 400.0 mg/kg/injection, schedule: Q01DX001 (oral), vehicle: saline): 117 % of control | T/C (endpoint: mean survival time, dose: 400.0 mg/kg/injection, schedule: Q01DX009 (oral), vehicle: saline): 109 % of control | T/C (endpoint: mean survival time, dose: 400.0 mg/kg/injection, schedule: Q04DX003 (oral), vehicle: saline): 119 % of control | T/C (endpoint: mean survival time, dose: 400.0 mg/kg/injection, schedule: Q08DX002 (oral), vehicle: saline): 107 % of control | T/C (endpoint: mean survival time, dose: 500.0 mg/kg/injection, schedule: Q01DX001 (oral), vehicle: saline): 121 % of control | T/C (endpoint: mean survival time, dose: 500.0 mg/kg/injection, schedule: Q03HX016 (ip), vehicle: saline): 154 % of control | T/C (endpoint: mean survival time, dose: 500.0 mg/kg/injection, schedule: Q03HX024 (ip), vehicle: saline): 121 % of control | T/C (endpoint: mean survival time, dose: 500.0 mg/kg/injection, schedule: Q08DX002 (ip), vehicle: saline): 164 % of control | T/C (endpoint: mean survival time, dose: 800.0 mg/kg/injection, schedule: Q04DX003 (oral), vehicle: saline): 110 % of control | T/C (endpoint: mean survival time, dose: 800.0 mg/kg/injection, schedule: Q08DX002 (oral), vehicle: saline): 156 % of control | T/C (endpoint: mean survival time, dose: 1000.0 mg/kg/injection, schedule: Q01DX001 (oral), vehicle: saline): 151 % of control | T/C (endpoint: mean survival time, dose: 1000.0 mg/kg/injection, schedule: Q01DX001 (sc), vehicle: saline): 159 % of control | T/C (endpoint: mean survival time, dose: 1000.0 mg/kg/injection, schedule: Q03HX008 (ip), vehicle: saline): 157 % of control | T/C (endpoint: mean survival time, dose: 1000.0 mg/kg/injection, schedule: Q03HX024 (ip), vehicle: saline): 92 % of control | T/C (endpoint: mean survival time, dose: 1000.0 mg/kg/injection, schedule: Q04DX003 (ip), vehicle: saline): 98 % of control | T/C (endpoint: mean survival time, dose: 1600.0 mg/kg/injection, schedule: Q01DX001 (oral), vehicle: saline): 103 % of control | T/C (endpoint: mean survival time, dose: 1600.0 mg/kg/injection, schedule: Q08DX002 (oral), vehicle: saline): 97 % of control | T/C (endpoint: median survival time, dose: 51.8 mg/kg/injection, schedule: Q04DX002 (ip), vehicle: saline): 107 % of control | T/C (endpoint: median survival time, dose: 86.4 mg/kg/injection, schedule: Q04DX002 (ip), vehicle: saline): 114 % of control | T/C (endpoint: median survival time, dose: 144.0 mg/kg/injection, schedule: Q04DX002 (ip), vehicle: saline): 121 % of control | T/C (endpoint: median survival time, dose: 400.0 mg/kg/injection, schedule: Q04DX002 (ip), vehicle: saline): 105 % of control
